We go through 25 molecules from ChEMBL document CHEMBL1124997, “Mechanism and inhibition of cytochrome P-450 aromatase” (J Med Chem, 1990).

First the molecules themselves.
T1: Aromatase (Homo sapiens, UniProt P11511)
T1 sequence (P11511 whole entry): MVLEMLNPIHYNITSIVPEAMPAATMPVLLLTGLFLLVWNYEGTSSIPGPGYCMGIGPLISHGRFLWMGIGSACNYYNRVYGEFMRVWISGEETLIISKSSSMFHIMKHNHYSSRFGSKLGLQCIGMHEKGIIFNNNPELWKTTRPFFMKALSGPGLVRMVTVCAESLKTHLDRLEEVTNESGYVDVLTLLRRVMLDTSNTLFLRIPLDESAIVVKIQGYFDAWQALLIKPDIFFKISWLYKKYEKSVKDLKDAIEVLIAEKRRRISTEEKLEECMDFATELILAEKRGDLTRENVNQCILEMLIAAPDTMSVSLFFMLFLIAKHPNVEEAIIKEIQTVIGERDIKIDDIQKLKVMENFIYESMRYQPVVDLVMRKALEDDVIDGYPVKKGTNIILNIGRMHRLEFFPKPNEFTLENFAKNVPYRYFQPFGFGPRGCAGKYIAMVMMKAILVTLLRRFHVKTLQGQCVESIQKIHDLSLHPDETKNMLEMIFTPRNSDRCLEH

T2: Aromatase (Rattus norvegicus, UniProt P22443)
T2 sequence (P22443 whole entry): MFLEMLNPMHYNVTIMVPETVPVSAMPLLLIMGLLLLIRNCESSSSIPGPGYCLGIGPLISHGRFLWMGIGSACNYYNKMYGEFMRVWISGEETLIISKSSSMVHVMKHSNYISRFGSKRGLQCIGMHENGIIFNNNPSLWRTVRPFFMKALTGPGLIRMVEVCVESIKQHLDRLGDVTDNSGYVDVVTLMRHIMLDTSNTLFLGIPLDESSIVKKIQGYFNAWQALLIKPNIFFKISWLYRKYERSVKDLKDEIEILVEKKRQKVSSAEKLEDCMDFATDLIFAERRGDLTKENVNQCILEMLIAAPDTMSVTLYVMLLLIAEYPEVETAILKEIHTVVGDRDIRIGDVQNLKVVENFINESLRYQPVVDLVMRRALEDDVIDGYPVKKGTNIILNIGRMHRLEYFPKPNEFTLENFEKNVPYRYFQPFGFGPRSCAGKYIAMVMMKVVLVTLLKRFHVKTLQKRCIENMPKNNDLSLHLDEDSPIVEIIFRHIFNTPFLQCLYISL

B1: Aromatase (Homo sapiens) (protein)
chain: T1 sequence (P11511 whole entry)

In general, Km refers to the concentration of substrate that gives half-maximal velocity. As usually defined, the Ki is the dissociation constant of the complex between target and ligand, obtained from inhibition or displacement. A lower Ki goes with a stronger hold on the target. As a reminder, the IC50 is the concentration that inhibits the measured activity by half. Lower therefore signals higher potency. The kinact is the rate constant of inactivation at saturating inhibitor.

Substrate in the first data set: C[C@]12CCC(=O)C=C1CC[C@@H]1[C@@H]2CC[C@]2(C)C(=O)CC[C@@H]12
The data set is described as follows: (§1) Binding affinity for Cytochrome P450 19A1. Also noted: species or system Homo sapiens.
With B1, the Michaelis constant (Km) was determined as 0.03 µM.

Substrate in a further data set: C[C@]12CCC(=O)C=C1CCC1C2CC[C@@]2(C)C1C[C@@H](O)[C@@H]2O
The data set is described as §1. Also noted: species or system Homo sapiens.
Take B1: the Km turned out to be 58 µM.

Substrate in another data set: C[C@]12CC[C@H]3[C@@H](CCC4=CC(=O)CC[C@@]43C)[C@@H]1CC[C@@H]2O
The data set is described as follows: (§2) Km for Cytochrome P450 19A1.
For B1, the Km came out at 0.21 µM.

Substrate in another data set: C[C@]12CCC(=O)C=C1CC[C@@H]1[C@@H]2CC[C@]2(C)C(=O)CC[C@@H]12
The description is as §2.
For the molecule B1, the Michaelis constant (Km) worked out at 0.06 µM.

In a further data set the target is T1, Aromatase.
For `CCC[C@]12CCC(=O)C=C1CCC1C2CC[C@]2(C)C(=O)CCC12` (stereo partly specified), the Ki is 3000 nM. That is a single-digit micromolar value.

Turning to `C[C@]12CCC3C(CCC4=CC(=O)CC[C@@]43C3CS3)C1CCC2=O` (stereo partly specified), the inhibitory constant (Ki) stood at 75 nM.

Turning to `C[C@]12CCC(=O)C=C1C[C@@H](Sc1ccc(I)cc1)C1C2CC[C@]2(C)C(=O)CCC12` (stereo partly specified), the affinity corresponds to a Ki of 12 nM.

Turning to `C[C@]12CCC(=O)C=C1[C@H](Br)CC1C2CC[C@@]2(C)C1CC[C@@H]2OC(=O)CBr` (stereo partly specified), the inhibition constant (Ki) turned out to be 25000 nM.

In turn, `C[C@]12CCC3C(CCC4=CC(=O)CC[C@]43C3CS3)C1CCC2=O` (stereo partly specified) gave an inhibition constant (Ki) of 1 nM.

Molecule `C[C@]12CCC3C(CCC4=CC(=O)CC[C@@]43C(F)F)C1CCC2=O` (stereo partly specified) returned an inhibition constant Ki of 1 nM.

With `C=C1C=C2CCC3C(CC[C@]4(C)C(=O)CCC34)[C@@]2(C)CC1` (stereo partly specified), the affinity, expressed as Ki, was 4.7 nM.

In the case of `CSC[C@]12CCC(=O)C=C1CCC1C2CC[C@]2(C)C(=O)CCC12` (stereo partly specified), the Ki amounted to 1 nM.

Turning to `C[C@]12CCC(=O)C=C1C[C@@H](Sc1ccc(NC(=O)CBr)cc1)C1C2CC[C@]2(C)C(=O)CCC12` (stereo partly specified), affinity was put at a Ki of 33000 nM. This Ki lies about 33000-fold higher than the previous one.

The molecule `C[C@]12CCC(=O)C(N)=C1CCC1C2CC[C@]2(C)C(=O)CCC12` (stereo partly specified) registered an inhibition constant Ki of 37 nM.

Molecule `CC[C@]12CCC(=O)C=C1CCC1C2CC[C@]2(C)C(=O)CCC12` (stereo partly specified) came in with a Ki of 9 nM.

Consider `C[C@]12CCC(=O)C(O)=C1CC[C@@H]1[C@@H]2CC[C@]2(C)C(=O)CC[C@@H]12` [FORMESTANE], for which the affinity, expressed as Ki, was 50 nM.

Turning to `C[C@]12C=CC(=O)C=C1CCC1C2CC[C@]2(C)OC(=O)CCC12` (stereo partly specified), the Ki was found to be 35000 nM.

`CC1(C)C[C@@]2(C)C(=CC1=O)CCC1C2CC[C@]2(C)C(=O)CCC12` (stereo partly specified) had a Ki of 2.3 nM. Against the preceding molecule, the Ki is about 15000-fold lower.

In turn, `C[C@]12C=CC(=O)C=C1C=C[C@@H]1[C@@H]2CC[C@]2(C)C(=O)CC[C@@H]12` registered a Ki of 180 nM. This Ki is about 78-fold higher than that of the molecule before.

`O=c1cc(-c2ccccc2)oc2c1ccc1ccc(O)cc12` had an inhibitory constant (Ki) of 5 nM.

`C=C[C@]12CCC(=O)C=C1CCC1C2CC[C@]2(C)C(=O)CCC12` (stereo partly specified) showed a Ki of 3 nM.

The molecule `C/C=C/[C@]12CCC(=O)C=C1CCC1C2CC[C@]2(C)C(=O)CCC12` (stereo partly specified) displayed an inhibition constant (Ki) of 56 nM. This Ki lies about 19-fold higher than the previous one.

`C[C@@]12CCCC1C1CCC3=CC(=O)C=C[C@]3(C)C1CC2` (stereo partly specified): the affinity, expressed as Ki, was 1100 nM.

The target of a further data set is T2, Aromatase.
`Cn1nnc2ccc(C(c3ccc(Cl)cc3)n3cncn3)cc21` (stereo not drawn) [rac-VOROZOLE] registered an IC50 of 3 nM. This lies in the single-digit nanomolar range.

For a further data set, the target named is T2, Aromatase. The description is as §1.
Consider `Clc1ccc(C2c3ccc(Cl)cc3-c3ncncc32)cc1` (stereo unspecified), for which the inhibition constant Ki is 24 nM.

In the next data set the target is T1, Aromatase. Described as §1.
For the molecule `Clc1ccc(COC(Cn2cccc2)c2ccc(Cl)cc2Cl)cc1` (stereo unspecified), the 50% inhibitory concentration (IC50) was 30 nM.

Turning to `C[C@]12CCC3C(CCC4=C(O)C(=O)CC[C@@]43C(F)F)C1CCC2=O` (stereo partly specified), the IC50 was 3300 nM. This IC50 lies about 110-fold higher than the previous one.

For the next data set, the target named is T1, Aromatase. Kind of data set: Time-dependent irreversible inactivation of human placental Cytochrome P450 19A1.
In the case of `C[C@]12CCC(=O)C=C1[C@H](Br)CC1C2CC[C@@]2(C)C1CC[C@@H]2OC(=O)CBr` (stereo partly specified), the kinact was 0.000457 s⁻¹.

Regarding `C[C@]12CCC3C(CCC4=CC(=O)CC[C@@]43C(F)F)C1CCC2=O` (stereo partly specified), the kinact was 0.000383 s⁻¹.

Turning to `C[C@]12CCC(=O)C=C1C[C@@H](Sc1ccc(NC(=O)CBr)cc1)C1C2CC[C@]2(C)C(=O)CCC12` (stereo partly specified), the maximal inactivation rate constant (kinact) was 0.00247 s⁻¹.

Turning to `C[C@]12CCC(=O)C=C1C[C@@H](Sc1ccc(N=[N+]=[N-])cc1)C1C2CC[C@]2(C)C(=O)CCC12` (stereo partly specified), the kinact was 0.00166 s⁻¹.
